Test results: patent US20240058292A1, “PHARMACEUTICAL COMPOSITION FOR TREATING CANCER, AND PREPARATION METHOD AND USE THEREOF” (priority 2020, published 2024)

How the values were obtained:
[1] = General clinical observation and body weight of tumor-bearing mice during administration; settings: mouse, in vivo
Protocol: According to body weights, animals were randomly divided into 6 groups, with 7 animals per group.
Observed animals: All animals
Observation frequency and time: The animals were observed once before each time of administration during the experiment, and administration and observation results were recorded.
Observation content: including, but not limited to, tumor growth, animal mental states, eating and drinking conditions, or the like.
Detected animals: All animals
Detection time: A body weight of an animal was measured and recorded when grouping (namely, before the first administration) (D1), before each subsequent administration, and before euthanasia.
A body weight and relevant information of an animal were measured and recorded if the animal died unexpectedly.

[2] = system: Human brain astroblastoma cell line U-87MG; assay: Tumor-suppressing effect on subcutaneously transplanted U-87MG tumors in nude mice (tumor weight, IRTW); assay type: in vivo, BALB/C-nu/nu mice; settings: intraperitoneal injection; for Tumor-suppressing rate (%): IRTW vs model group; for Tumor weight: U-87MG tumor, end of experiment, mean±SD
Protocol: 4. Laboratory animals • Animal species: BALB/C-nu/nu mice • Animal grade: SPF grade • Gender and quantity:42 females • Animal age at the start of an experiment: 6 weeks old • Animal body weight at the start of an experiment: 18±2 g • Animal source: Vital River Laboratory Animal Technology Co., Ltd.
Cell source and cultivation conditions: Human brain astroblastoma cell line U-87MG: which came from the Cell Resource Center of the Shanghai Institutes for Biological Sciences (SIBS); medium: MEM medium including 1% penicillin-streptomycin sulfate mixed solution (100 ×) and 10% fetal bovine serum (FBS) (from Australia); cultivation conditions: 5% CO2 and 37° C.; and the cell line was frozen by Marine Biomedical Research Institute of Qingdao.
The cell line U-87MG stored in liquid nitrogen was recovered, inoculated in a corresponding medium including 10% FBS, 100 U/mL penicillin, and 100 […] streptomycin, and cultivated in the cell culture incubator at 37° C. and 5% CO2. The cells were passaged every two days.
After the cells were passaged four times, resulting cells were collected through digestion with 0.05% trypsin-EDTA, counted under a microscope, and resuspended with a medium to obtain a cell suspension with 5×10^7 cells/mL; a mouse was routinely disinfected, and 0.2 mL of the cell suspension was subcutaneously inoculated in an axillary region of a right forelimb of the mouse; and a resulting tumor tissue was aseptically taken out, weighed, diluted with a sodium chloride injection according to a mass-to-volume ratio of 1:4, and then ground, then a mouse was routinely disinfected, and 0.2 mL of a resulting suspension was subcutaneously inoculated in an axillary region of a right forelimb of the mouse for passage, where the passage was continuously conducted twice. During this period, the mice were raised normally, and the states and tumor growth conditions of the mice were observed and recorded every week.
When a tumor volume in a tumor-bearing mouse to be passaged was about 1,200 mm 3, a tumor was ground and transplanted by a same method for molding. After the tumor inoculation was completed, a body weight of a mouse was measured, and mice were randomly selected and divided into 6 groups with 7 mice per group. After tumor colonization, the administration was started, which was recorded as Day 1 (D1). […]
After the experiment was completed, tumor tissues of animals that died unexpectedly and surviving animals that were euthanized each were peeled off and weighed, and a tumor weight difference of each group was calculated to further calculate a tumor-suppressing rate (IRTW) according to the following formula: […]
It was required in this scheme that measured and observed data results were manually recorded in appropriate forms or directly acquired by a computer. […]

[3] = 5-Fluorouracil 18 mg/kg, twice a week

SMILES	Body weight of mice during administration [1]	Tumor-suppressing rate (%) [2, 3] [%]	Tumor weight [2, 3]	Tumor-suppressing rate (%) ([2]; TMZ 25 mg/kg, once every day)	Tumor weight ([2]; TMZ 25 mg/kg, once every day)
O=c1[nH]cc(F)c(=O)[nH]1 [5-Fluorouracil]	reduced at a late stage of administration	52.7	1.3305 ± 0.6525		
Cn1nnc2c(C(N)=O)ncn2c1=O [TMZ, temozolomide]				99.5	0.0134 ± 0.0091
